The text below walks through data of patent US20220280526A1, “AGENT FOR THE TREATMENT OF PSORIASIS” (EBERHARD KARLS UNIVERSITAET TUEBINGEN MEDIZINISCHE FAKULTAET, priority 2019, published 2022).

The subject of one data set is H3K27me3. As to conditions: cited from earlier work.
Data set [1] relates to non-Hodgkin's lymphoma / DLBCL cell lines. Particulars: cited from earlier work; for effect on DLBCL cells with EZH2 (Y641) mutations: diffused large B cell lymphoma cells.
The test system of data set [2] is IL-36-mediated psoriasis-like dermatitis. The data set can be described thus: IL-36α-triggered psoriasis-like dermatitis mouse model, topical treatment of ears. In kind it is in vivo, C57BL/6 mice. The procedure:
Experiments were conducted in accordance with the German law guidelines of animal care. […] At day 7, mice were sacrificed and analysed. For IL-36α-mediated psoriasis induction, ears of male C57BL/6 mice (8-12 weeks old) were treated by intradermal injections using 1 μg murine IL-36α (aa 8-160, R&D) or PBS control for 5 consecutive days. […] Inhibitors were topically applicated 6 h before intradermal injections of IL-36α or PBS were applied. Mice were sacrificed and analysed at day 6. Ear sections from mice were fixed in 10% formalin (Carl Roth) and subsequently embedded in paraffin. 5-μm sections were prepared and incubated with the following antibodies from Cell Signaling: pSTAT3 (9145), pRB (8516) and H3K27me3 (9733). For staining of human skin samples, EZH2 antibody (Cell Signaling, 5246) was used. Antigen retrieval was performed in 1 mM EDTA pH 8.0 for pSTAT3, and 10 mM citrate buffer pH 6.0+0.5% Triton X-100 for EZH2, H3K27me3 and pRB. After incubation with peroxidase-coupled secondary antibodies, sections were stained with DAB substrate.

The test system of data set [3] is IMQ-induced psoriasis-like skin inflammation. The data set can be described thus: Imiquimod (IMQ)-mediated psoriasis mouse model, topical treatment of ears. In kind it is in vivo, C57BL/6 mice. The procedure: Experiments were conducted in accordance with the German law guidelines of animal care. […] At day 7, mice were sacrificed and analysed. For IL-36α-mediated psoriasis induction, ears of male C57BL/6 mice (8-12 weeks old) were treated by intradermal injections using 1 μg murine IL-36α (aa 8-160, R&D) or PBS control for 5 consecutive days. […] Inhibitors were topically applicated 6 h before intradermal injections of IL-36α or PBS were applied. Mice were sacrificed and analysed at day 6.
Sample preparation was performed as described. The following anti-mouse antibodies from BioLegend were used: anti-CD45 FITC (103107), anti-CD11 b PacificBlue (101223), anti-Ly6G PE (127607), anti-F4/80 APC (123115), anti-CD11c Pacific Blue (117322), anti-MHC-II APC (107613), anti-CD172α PE (144011) and anti-Silec-H PE (129605). Anti-PDCA-1 APC (17-2092-80) and anti-αβTCR PE (HM3628) were purchased from Invitrogen, and anti-γδ-TCR APC (17-5711-82) from Sigma. Data was acquired on a LSRII flow cytometer (Becton Dickson).
Ear sections from mice were fixed in 10% formalin (Carl Roth) and subsequently embedded in paraffin. 5-μm sections were prepared and incubated with the following antibodies from Cell Signaling: pSTAT3 (9145), pRB (8516) and H3K27me3 (9733). For staining of human skin samples, EZH2 antibody (Cell Signaling, 5246) was used. Antigen retrieval was performed in 1 mM EDTA pH 8.0 for pSTAT3, and 10 mM citrate buffer pH 6.0+0.5% Triton X-100 for EZH2, H3K27me3 and pRB. After incubation with peroxidase-coupled secondary antibodies, sections were stained with DAB substrate.

The conditions of data set [4]: experimental animals; cited from earlier work.
In data set [5] the test system is B cell lymphoma xenografts. As to conditions: cited from earlier work.
A further data set deals with SCLC cell lines. Particulars: three SCLC cell lines; cited from earlier work.
Data set [6] relates to prostate cancer cell lines. As to conditions: in vitro; cited from earlier work.
A further data set deals with cutaneous melanomas. Particulars: mice; cited from earlier work.
Data set [7] has as its system wild-type and mutant EZH2. As to conditions: cited from earlier work.
Setting [8] is: flow cytometry of ears at day 7.

Molecules are shown by their SMILES. “Also recorded” adds a separate entry of the source.

Take `CCS(=O)(=O)N1CCC([C@@H](C)n2c(C)c(C(=O)NCc3c(OC)cc(C)[nH]c3=O)c3ccccc32)CC1` [CPI-169]: the “cellular H3K27me3 / H3K27 methylation” value in the data set on H3K27me3 is on record as “decreases”. Further, in data set [1] (large panel of NHL cell lines), the “effect on non-Hodgkin's lymphoma (NHL) cell lines” value was “triggering cell cycle arrest and ultimately resulting in apoptosis”. Further, the “IL-36-mediated expression of IκBζ, phosphorylation of EZH2 at T345 and activation of STAT3 (pSTAT3 Y705) in skin” value in data set [2] (immunoblot of ear skin at day 6) is “suppressed”. In data set [2] (intradermal IL-36α 5 days, topical inhibitor, abemaciclib 0.02 mg, CPI-169 0.05 mg, day 6), the “keratinocyte hyperproliferation and immune cell infiltration” value was “effectively blocked”. In addition, the “IκBζ target gene expression and key cytokine expression (Il17a, Il23a)” value in [2] (qPCR of skin samples) is “effectively blocked”. Moreover, the “H3K27me3 expression in the epidermis (EZH2 inhibition)” value in [3] (ear skin sections of treated mice) was “loss”. Moreover, in data set [3] (setting [8]), the “immune cell infiltration (neutrophils, macrophages, T cells)” value is listed as “fully abrogated”; the “number of infiltrating plasmacytoid (pDC) and myeloid dendritic cells (mDC)” value is recorded as “significantly suppressed”. Besides, the “IκBζ expression, phosphorylation of EZH2 at T345 and of STAT3 at Y705 in the skin” value in [3] (immunoblot of skin tissue at day 7) was “completely abrogated”. For the same compound, the “expression of IκBζ target genes (Cxcl2, Cxcl5) and cytokines (Il17a, Il23a) in skin” value in [3] (qPCR of skin samples at day 7) is recorded as “significantly downregulated”. In data set [3] (topical daily for 6 days with IMQ, abemaciclib 0.02 mg, CPI-169 0.05 mg per ear/day, analysed day 7), the “psoriasis-like skin inflammation (ear thickening, keratinocyte hyperproliferation, immune cell infiltration)” value is “completely suppressed; also recorded: completely suppressing”.

Turning to `COc1cc(C)[nH]c(=O)c1CNC(=O)c1c(C)n([C@H](C)C2CCN(CC(F)(F)F)CC2)c2ccccc12` [CPI-1205], the tolerability result in data set [4] was “well-tolerated”.

Regarding `CCc1c(N(CC)C2CCOCC2)cc2oc(C3CCN(C(C)C)CC3)cc2c1C(=O)NCc1c(C)cc(C)[nH]c1=O` [EBI-2511], the “efficacy in Pfeiffer tumor Xenograft models” value in [5] (mouse) is on record as “high in vivo efficacy”.

For `CCC(CC)n1ccc2c(C(=O)NCc3c(C)cc(C)[nH]c3=O)cc(C#N)cc21` [EI1], the “cellular H3K27me3 / H3K27 methylation” value in the data set on H3K27me3 is listed as “blocks”. Besides, the “effect on DLBCL cells with EZH2 (Y641) mutations” value (shortened to “effect on DLBCL cells with EZH2”) in data set [1] is “decreased proliferation, cell cycle arrest, and apoptosis”.

For the compound `CCN(c1cc(C#CCN2CCOCC2)cc(C(=O)NCc2c(C)cc(C)[nH]c2=O)c1C)[C@H]1CC[C@H](N(C)CCOC)CC1` [EPZ011989], the “tumor growth, xenograft model of human B cell lymphoma” value in data set [5] (mouse) is recorded as “significant tumor growth inhibition”.

Regarding `CC[C@H](C)n1cc(C)c2c(C(=O)NCc3c(C)cc(C)[nH]c3=O)cc(-c3ccc(N4CCNCC4)nc3)cc21` [GSK126], the “growth of EZH2 mutant DLBCL xenografts” value in data set [5] (mice) is reported as “effectively inhibits”. In addition, the “growth of SCLC cell lines” value in the data set with SCLC cell lines is “induces growth inhibition”. Moreover, the “effect on DLBCL cells with EZH2” value in [1] is listed as “effectively inhibits proliferation”.

In the case of `CCCc1cc(C)[nH]c(=O)c1CNC(=O)c1cc(-c2ccnc(N3CCN(C)CC3)c2)cc2c1cnn2C(C)C` [GSK343], the H3K27me3 levels result with H3K27me3 (breast cancer cells in vitro) is “decrease”. In data set [6], the “proliferation of prostate cancer cell lines” value is “inhibits proliferation”.

As for `Cc1cc(C)c(CNC(=O)c2cc(-c3ccc(N4CCN(C)CC4)nc3)cc3c2c(C)cn3C(C)C)c(=O)[nH]1` [GSK503], the “growth and metastasis of cutaneous melanomas” value with cutaneous melanomas is “inhibits growth and metastasis”.

In the case of `Cc1cc(C)c(CN2CCc3c(Cl)cc(-c4c(C)noc4C)c(Cl)c3C2=O)c(=O)[nH]1` [PF-06726304], the “efficacy in diffuse large B-cell lymphoma Karpas-422 tumor model” value in data set [5] (mouse, in vivo) is “good efficacy”.

For `CCCc1cc(C)[nH]c(=O)c1CNC(=O)c1cc(-c2ccc(N3CCN(C(C)C)CC3)nc2)cc2c1cnn2C(C)C` [UNC1999], the “difference in potency, wild-type vs mutant Y641N EZH2 methyltransferase activity” value in [7] was below 5 fold. For the same compound, in data set [1], the “effect on DLBCL cells with EZH2” value is listed as “selectively killed”.
